# From patent US20260337245A1, “POLYPEPTIDE OR ANALOG THEREOF AND USE THEREOF” (Shenzhen Bay Laboratory, priority 2024, published 2026)
# pEC50: −log10 of the molar value. Starred links: 1 amine or outer side, 2 acyl side, 3 side chain; linkers in the order of their positions; H or OH if unused. Positions of bridges follow the written chain, without caps; N, C: chain ends. Non-standard residues stand in square brackets, D forms with d. Residues, ends and D or L forms follow the SMILES beside them. X1 = O=C(O)CCCCCCCCCCCCCCCCCCC(=O)N[C@@H](CCCCNC(=O)COCCOCCNC(=O)COCCOCCNC(=O)CCC(=O)N(CCNC(=O)C[*:1])CCNC(=O)C[*:2])C(=O)O; NMeR = CN[C@@H](CCCNC(=N)N)C(=O)O; αMeF = C[C@](N)(Cc1ccccc1)C(=O)O; αMeL = CC(C)C[C@](C)(N)C(=O)O; Aib = CC(C)(N)C(=O)O
# Tests used:
# AMY3R = molecular target: T1, AMY3R (Homo sapiens, UniProt P30988); test: HTRF cAMP assay, AMY3R; format: cell-based; conditions: HEK293/pGM-CREB-L-Luc/AMY3R pool, read-out: IC50 of receptor AMY3R
# T1 construct: expressed in transfected cells
# T1 sequence (P30988 25-474): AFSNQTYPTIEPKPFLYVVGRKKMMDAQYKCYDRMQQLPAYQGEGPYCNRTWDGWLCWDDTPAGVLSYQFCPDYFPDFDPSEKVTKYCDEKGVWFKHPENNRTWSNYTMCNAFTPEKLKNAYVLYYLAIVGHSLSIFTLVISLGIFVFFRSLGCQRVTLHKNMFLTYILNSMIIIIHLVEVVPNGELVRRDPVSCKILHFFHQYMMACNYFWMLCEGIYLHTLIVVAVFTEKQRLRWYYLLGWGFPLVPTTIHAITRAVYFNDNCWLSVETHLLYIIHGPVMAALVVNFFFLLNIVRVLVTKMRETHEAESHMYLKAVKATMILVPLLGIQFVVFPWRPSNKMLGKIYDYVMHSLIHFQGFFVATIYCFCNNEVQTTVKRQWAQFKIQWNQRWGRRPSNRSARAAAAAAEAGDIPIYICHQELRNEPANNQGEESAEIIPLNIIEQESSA
# T1 sequence (O60896 24-148 partner): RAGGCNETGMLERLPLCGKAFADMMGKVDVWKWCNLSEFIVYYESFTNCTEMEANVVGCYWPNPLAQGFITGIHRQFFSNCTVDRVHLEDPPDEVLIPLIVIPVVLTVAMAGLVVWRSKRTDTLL
# Excerpt: (§1) 2. The polypeptide derivatives prepared in Example 1 and Example 2 of the present disclosure can bind to the target AMYR and CTR receptors on the cell membrane, activate the receptors and release cAMP. Therefore, the activity of the analyte can be determined by using an HTRF (homogeneous time-resolved fluorescence) method and using a cAMP detection kit. The specific steps were as follows:
# (§2) A stable transfected cell line of HEK293/pGM-CREB-L-Luc/AMY3R pool and HEK293/pGM-CREB-L-Luc/CTR pool was constructed. The polypeptide derivatives (i.e., AMY-001 to AMY-041) prepared in Examples 1 and 2 were subjected to 5-fold serial dilution from a maximum of 1000 nM to prepare a dilution series containing 8 to 11 concentration gradients. Cagrilintide and sCT were selected as positive controls for testing, and a dilution series was prepared according to the same method for testing. The test cell lines were selected and treated with cAMP-specific trypsin for digestion, and then suspended with 3 mL of serum-free DMEM medium by pipetting, and the cells were counted. 5 μL of IBMX (prepared with serum-free DMEM medium, 0.5 mM) and test cells (5 μL/7500 cells/well) were sequentially added to a 384-well plate, incubated under the conditions of 37° C., 5% CO2 for 30 minutes, then added with cAMP-d2 (5 μL, 1×) and Anti-cAMP-Cryptate (5 μL, 1×) and placed at room temperature for 1 hour. A HTRF value was determined by a chemiluminescence microplate reader, and the results were recorded. An activation curve was plotted using GraphPad Prism software to calculate an IC50 value of each polypeptide derivative. […] The IC50 values of some polypeptides were exemplarily shown in this example, see Table 3, FIG. 2 and FIG. 3 for details.
# CTR = molecular target: T2, CTR (Homo sapiens, UniProt P30988); test: HTRF cAMP assay, CTR; format: cell-based; conditions: HEK293/pGM-CREB-L-Luc/CTR pool, read-out: IC50 of receptor CTR
# T2 construct: expressed in transfected cells
# T2 sequence (P30988 25-474): T1 sequence (P30988 25-474)
# Excerpt: as §1, §2
pEC50 (AMY3R),pEC50 (CTR),SMILES
10.17,9.99,"CC(=O)N[C@@H](C)C(=O)N[C@@H](CO)C(=O)N[C@@H](Cc1c[nH]cn1)C(=O)N[C@@H](CC(C)C)C(=O)N[C@@H](CO)C(=O)N[C@H](C(=O)N[C@@H](C)C(=O)N[C@H](C(=O)N[C@@H](CC(C)C)C(=O)NCC(=O)N[C@H]1CCCCNC(=O)CN(C(=O)COCCOCCNC(=O)CC[C@H](NC(=O)CCCCCCCCCCCCCCCCCCC(=O)O)C(=O)O)CC(=O)NCCCC[C@@H](C(=O)N[C@@H](CC(C)C)C(=O)NC(C)(C)C(=O)N[C@@H](CC(=O)O)C(=O)N[C@@H](Cc2ccc(O)cc2)C(=O)N2CCC[C@H]2C(=O)N[C@@H](CCC(N)=O)C(=O)N[C@H](C(=O)N[C@@H](CC(=O)O)C(=O)N[C@H](C(=O)NCC(=O)N[C@@H](C)C(=O)NCC(=O)N[C@@H](CO)C(=O)N2C[C@H](O)C[C@H]2C(N)=O)C(C)C)[C@@H](C)O)NC(=O)[C@H](Cc2c[nH]cn2)NC(=O)[C@H](CC(C)C)NC(=O)[C@H](CCC(=O)O)NC(=O)[C@H](C)NC(=O)[C@H](CO)NC(=O)[C@H](CC(C)C)NC1=O)C(C)C)[C@@H](C)O [AMY-022, Ac-ASHLSTAVLGKLSAELHKL-Aib-DYPQTDVGAGS-Hyp-NH2]"
10.28,10.38,"CC(=O)N[C@@H](C)C(=O)N[C@@H](CO)C(=O)N[C@@H](Cc1c[nH]cn1)C(=O)N[C@@](C)(CC(C)C)C(=O)N[C@@H](CO)C(=O)N[C@H](C(=O)N[C@@H](C)C(=O)N[C@H]1CSCC(=O)NCCN(C(=O)CCC(=O)NCCOCCOCC(=O)NCCOCCOCC(=O)NCCCC[C@H](NC(=O)CCCCCCCCCCCCCCCCCCC(=O)O)C(=O)O)CCNC(=O)CSC[C@@H](C(=O)N[C@@H](CC(C)C)C(=O)N[C@@H](Cc2c[nH]cn2)C(=O)N[C@@H](CCCCN)C(=O)N[C@@H](CC(C)C)C(=O)NC(C)(C)C(=O)N[C@@H](CC(=O)O)C(=O)N[C@@](C)(Cc2ccccc2)C(=O)N2CCC[C@H]2C(=O)N(C)[C@@H](CCCNC(=N)N)C(=O)N[C@H](C(=O)N[C@@H](CC(=O)O)C(=O)N[C@H](C(=O)NCC(=O)N[C@@H](C)C(=O)NCC(=O)N[C@@H](CO)C(=O)N2CCC[C@H]2C(N)=O)C(C)C)[C@@H](C)O)NC(=O)[C@H](C)NC(=O)[C@H](CO)NC(=O)[C@H](CC(C)C)NC(=O)[C@H](CCCNC(=N)N)NC(=O)CNC(=O)[C@H](CC(C)C)NC1=O)[C@@H](C)O [AMY-010, Ac-ASH-(aMeK)-STACLGRLSACLHKL-Aib-D-(αMeF)-P-(N-Me-R)-TDVGAGSP-NH2] (Ac-ASH[αMeL]STACLGRLSACLHKL[Aib]D[αMeF]P[NMeR]TDVGAGSP-NH2; linker 8-15 via X1)"
10.91,,"CC[C@H](C)[C@H](NC(=O)[C@@H]1CCCN1C(=O)CNC(=O)[C@H](Cc1ccccc1)NC(=O)[C@H](CC(N)=O)NC(=O)[C@H](CC(N)=O)NC(=O)[C@H](CO)NC(=O)[C@H](CO)NC(=O)[C@H](Cc1c[nH]cn1)NC(=O)[C@H](CCCNC(=N)N)NC(=O)[C@H](CC(C)C)NC(=O)[C@H](Cc1ccccc1)NC(=O)[C@H](CCC(=O)O)NC(=O)[C@H](C)NC(=O)[C@H](CC(C)C)NC(=O)[C@H](CCCNC(=N)N)NC(=O)[C@H](CCC(N)=O)NC(=O)[C@@H](NC(=O)[C@H](C)NC(=O)[C@@H]1CSSC[C@H](NC(=O)[C@H](CCCCN)NC(=O)CC[C@H](NC(=O)CCCCCCCCCCCCCCCCCCC(=O)O)C(=O)O)C(=O)N[C@@H](CC(N)=O)C(=O)N[C@@H]([C@@H](C)O)C(=O)N[C@@H](C)C(=O)N[C@@H]([C@@H](C)O)C(=O)N1)[C@@H](C)O)C(=O)N[C@@H](CC(C)C)C(=O)N1CCC[C@H]1C(=O)N1CCC[C@H]1C(=O)N[C@H](C(=O)N[C@@H](CC(N)=O)C(=O)N[C@H](C(=O)NCC(=O)N[C@@H](CO)C(=O)N[C@@H](CC(N)=O)C(=O)N[C@H](C(=O)N1CCC[C@H]1C(N)=O)[C@@H](C)O)C(C)C)[C@@H](C)O [Cagrilintide, reference compound]"
